The text below walks through data of patent US8075921B2, “Rapamycin-resistant T cells and therapeutic uses thereof” (The United States of America as represented by the …, priority 2001, dated 2011).

In one experiment the test system is naïve human CD4 cells. Put plainly: Co-stimulated expansion of flow-sorted naïve CD4 cells with or without rapamycin. Type of experiment: cell-based. To be noted: in rapamycin relative to control culture. The source says:
(§1) To this extent, naïve or memory human CD4 cells were purified by flow sorting, and co-stimulated either with or without rapamycin (results in FIG. 31).

For experiment [1], the system named is memory CD45RO^+ sorted cells. Briefly: Co-stimulated expansion of flow-sorted memory CD4 cells with or without rapamycin. Type of experiment: cell-based, human. Particulars: in rapamycin relative to control culture.
From the text: as §1

Take `CO[C@H]1C[C@@H]2CC[C@@H](C)[C@@](O)(O2)C(=O)C(=O)N2CCCC[C@H]2C(=O)O[C@H]([C@H](C)C[C@@H]2CC[C@@H](O)[C@H](OC)C2)CC(=O)[C@H](C)/C=C(\C)[C@@H](O)[C@@H](OC)C(=O)[C@H](C)C[C@H](C)/C=C/C=C/C=C/1C` [rapamycin]: the “reduction in CD4 yield” value in the experiment on naïve human CD4 cells was about 25%. Further, the “reduction in CD4+ T cell expansion” value in experiment [1] is reported as about 50%.
